From patent publication US20250333370A1, “METHOD FOR EXTRACTING 3,5-O-DICAFFEOYLQUINIC ACID FROM HUANGSHAN GONGJU AND ITS APPLICATION IN DRUGS FOR PROTECTING AGAINST ALCOHOLIC LIVER DAMAGE” (Hefei University of Technology, priority 2024, published 2025)

Assays:
AML-12 cells = experiment: MTT cell survival, toxic effect of 3,5-O-dicaffeoylquinic acid on cells; type: cell-based, mouse; settings: for cell survival rate: AML-12 cells, 24 hours, MTT
Experimental: AML-12 cells, mouse normal liver cells; 3-(4,5-dimethylthiazol-2-yl)-2,5-diphenyl-2H-tetrazolium-3-bromide (MTT), dimethyl sulfoxide (DMSO), reactive oxygen species (ROS) kit, superoxide dismutase (SOD) kit, malondialdehyde (MDA) kit, glutathione (GSH) kit; high-speed centrifuge, microplate reader, etc.
Logarithmically growing AML-12 cells are seeded into 96-well plates at a density of 0.8×10^5 cells/mL, and 100 μL of cell suspension is added to each well and incubated for 24 hours. In an alcohol treatment group, alcohol (0-1600 mM, DMEM dilution) is added to the incubator for 24 hours. In a 3,5-O-dicaffeoylquinic acid treatment group, 100 μL of 3,5-O-dicaffeoylquinic acid (100-1600 μg/mL, DMEM dilution) is added to the incubator for 24 hours. 120 μL of MTT (1 mg/mL) is added to each well and incubated for 4 h. The reaction solution is discarded; 150 μL DMSO is added, and OD value is measured at a wavelength of 490 nm after shaking for 10 minutes in the dark.

[1] = test system: alcohol-damaged AML-12 cells; experiment: MTT cell survival, ameliorative effect on cell alcohol damage (260 mM alcohol); type: cell-based, mouse; settings: pretreatment 24 hours, then 260 mM alcohol 24 hours
Experimental: Log-growing AML-12 cells are collected and digested, and then seeded into a 96-well plate at a density of 0.8×10^5 cells/mL per well. After 24 hours of cell proliferation, the control (and model) group is incubated with 100 μL of medium for 48 hours; the 3,5-O-dicaffeoylquinic acid treatment group is incubated with different concentrations of 3,5-O-dicaffeoylquinic acid for 24 hours, and the original medium is discarded; the cells (in model and drug treated group) are incubated in 100 μL of medium containing 260 mM alcohol for 24 hours. The absorbance measurement method is the same as the item 2 above.
Cell survival rate is calculated using the following formula: […]

[2] = test system: alcohol-induced AML-12 cells; experiment: ROS content determination (DCFH-DA, fluorescence microscope and flow cytometer); type: cell-based, mouse; settings: 260 mM alcohol
Experimental: (§1) AML-12 cells are treated with drugs (100, 200, 400 μg/mL) for 24 h, and then treated with 260 mM alcohol for 24 h. After trypsin digestion and PBS washing, the probe from the ROS kit is added. First, incubation is conducted with 1 mL of DCFH-DA (diluted in serum-free DMEM) at 37° C. for 20 min. The supernatant is discarded after centrifugation, and the remaining is washed three times and resuspended in PBS. 10 μL of the resuspension is observed under a fluorescence microscope, and is further detected under a flow cytometer.

[3] = test system: alcohol-induced AML-12 cells; experiment: Determination of MDA, SOD, CAT and GSH content (kits); type: cell-based, mouse; settings: 260 mM alcohol
Text: Excessive ROS in cells can cause oxidative reactions in proteins and unsaturated fatty acids. MDA is the final product of the oxidation of polyunsaturated fatty acids and is a marker of lipid peroxidation in cells, which is widely used in studies on oxidative stress. SOD, CAT, and GSH are important antioxidant enzymes in the body and play an important role in the body's systematic resistance to oxidative stress. […] After trypsin digestion and PBS washing, the MDA, SOD, CAT, and GSH content in the cells are detected according to the guidance of corresponding kits.

[4] = test system: alcohol-induced AML-12 cells; experiment: Apoptosis and necrosis after alcohol damage (Hoechst, fluorescence microscope and flow cytometer); type: cell-based, mouse; settings: 260 mM alcohol
Experimental: as §1, with “washing,” for “washing, the”, “an apoptosis detection” for “the ROS”, “5 μL Hoechst” for “1 mL of DCFH-DA”, “PBS)” for “serum-free DMEM)”, “0°” for “37°”

[5] = studies have shown; cited from earlier work
α-glucosidase = settings: studies have shown; cited from earlier work
[6] = test system: focal cerebral ischemia-reperfusion injury; settings: rats; studies have shown; cited from earlier work
[7] = 400 μg/mL pretreatment, fluorescence microscope

O=C(C=Cc1ccc(O)c(O)c1)OC1CC(O)(C(=O)O)CC(OC(=O)C=Cc2ccc(O)c(O)c2)C1O (single isomer, unassigned) [3,5-O-dicaffeoylquinic acid]
cell survival rate (AML-12 cells; 0-800 μg/mL): increases significantly | cell survival rate (AML-12 cells; 1600 μg/mL, P<0.05): decreases significantly | toxicity to AML-12 cells (AML-12 cells; concentration range of 0-800 μg/mL): non-toxic | increase of cell survival rate compared with the model group ([1]; 400 μg/mL, highest cell survival rate): 19.90% | survival rate of alcohol-damaged AML-12 cells compared with model group ([1]; 100-400 g/mL (so in the source)): significantly increase | ROS fluorescence intensity of the cells compared to the alcohol-treated group (model group) [2, 7]: significantly reduces | fluorescence intensity of ROS versus model group, dependence on drug concentration ([2]; 100, 200, 400 μg/mL pretreatment, fluorescence microscope): gradually weakens with the increase of drug concentration | ROS peak fluorescence intensity, flow cytometry ([2]; pretreatment with different concentrations, as the drug concentration increases): shifts significantly to the right | MDA content in cells, concentration of best effect ([3]; 200 μg/mL pretreatment): most significant effect | GSH content ([3]; 400 μg/mL pretreatment, increases from 53.39±2.16 mg/g protein): 82.14±1.67 mg/g protein | activity of CAT in cells ([3]; 100-600 μg/mL pretreatment): significantly restore | activity of SOD in cells ([3]; 100-600 μg/mL pretreatment): significantly restore | MDA content in cells ([3]; pretreatment at different concentrations): significantly reduces | fluorescence intensity of apoptosis compared with the alcohol-treated group [4, 7]: significantly reduces | cell survival rate (apoptosis/necrosis flow cytometry) ([4]; pretreatment with different concentrations, with the increase in drug concentration): gradually increases | antioxidant effects [5]: certain antioxidant effects | α-glucosidase inhibition (α-glucosidase): inhibits | focal cerebral ischemia-reperfusion injury [6]: can mitigate
